Measured values as given in patent US20150166523A1, “BRANCHED CHAIN ALKYL HETEROAROMATIC RING DERIVATIVE” (TAISHO PHARMACEUTICAL CO., LTD., priority 2012, published 2015).
pIC50: −log10 of the molar value.

Legend:
[1] = molecular target: T1, human orexin-1 receptor (hOX1R) (Homo sapiens, UniProt O43613); assay: Measurement of orexin antagonistic activity (intracellular Ca2+ fluorescence, FDSS) on hOX1R; format: cell-based; conditions: CHO cells forcibly expressing hOX1R; Fluo-4AM; ligand peptide (substituted human orexin-A) 300 pM; compound preincubated 30 minutes; read-out: IC50 Value OX1
T1 construct: expressed in transfected cells; host or cells: Chinese hamster ovary (CHO) cells
T1 sequence (O43613 1-425): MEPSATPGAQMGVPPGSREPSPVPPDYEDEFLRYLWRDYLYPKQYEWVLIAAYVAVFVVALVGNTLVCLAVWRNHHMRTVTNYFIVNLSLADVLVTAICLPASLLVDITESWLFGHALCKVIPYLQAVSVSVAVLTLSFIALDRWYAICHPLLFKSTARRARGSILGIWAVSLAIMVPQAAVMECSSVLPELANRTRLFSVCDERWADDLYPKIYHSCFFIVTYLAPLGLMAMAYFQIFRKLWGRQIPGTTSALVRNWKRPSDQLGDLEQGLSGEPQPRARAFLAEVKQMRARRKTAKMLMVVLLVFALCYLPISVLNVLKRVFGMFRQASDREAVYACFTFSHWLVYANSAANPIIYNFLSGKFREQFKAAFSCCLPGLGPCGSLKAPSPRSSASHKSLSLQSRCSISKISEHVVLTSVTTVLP
In short: (§1)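 CHO cells stably expressing hOX1R or hOX2R, loaded with 0.5 μM Fluo-4AM in HEPES/HBSS buffer with 0.1% BSA and 2.5 mM probenecid, pH 7.4, then preincubated 30 min with compound. Fluorescence recorded each second for 3 min by FDSS; maximum intensity taken as intracellular Ca2+ indicator of antagonism.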

[2] = molecular target: T2, orexin-2 receptor (hOX2R) (Homo sapiens, UniProt O43614); assay: Measurement of orexin antagonistic activity (intracellular Ca2+ fluorescence, FDSS) on hOX2R; format: cell-based; conditions: CHO cells forcibly expressing hOX2R; Fluo-4AM; ligand peptide (substituted human orexin-A) 3 nM; compound preincubated 30 minutes; read-out: IC50 Value OX2
T2 construct: expressed in transfected cells; host or cells: Chinese hamster ovary (CHO) cells
T2 sequence (O43614 1-444): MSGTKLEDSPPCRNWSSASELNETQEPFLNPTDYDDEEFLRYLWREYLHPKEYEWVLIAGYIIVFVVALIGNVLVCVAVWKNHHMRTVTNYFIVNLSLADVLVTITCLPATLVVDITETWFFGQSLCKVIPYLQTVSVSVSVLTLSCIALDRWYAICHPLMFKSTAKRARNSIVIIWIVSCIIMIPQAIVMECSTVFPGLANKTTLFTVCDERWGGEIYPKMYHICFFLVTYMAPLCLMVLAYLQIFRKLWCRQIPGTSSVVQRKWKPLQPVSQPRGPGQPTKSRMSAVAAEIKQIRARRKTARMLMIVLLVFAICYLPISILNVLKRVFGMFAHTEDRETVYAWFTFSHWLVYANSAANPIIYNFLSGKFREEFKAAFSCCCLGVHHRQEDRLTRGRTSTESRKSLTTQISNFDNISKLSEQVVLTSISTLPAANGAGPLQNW
In short: as §1

pIC50 [1]	pIC50 [2]	SMILES
6.99	6.40	COCCN(C(=O)c1cc(C)ccc1-n1nccn1)[C@@H](C)Cn1cc(-c2ccc(F)cc2)nn1 [Example 72, N-{(2S)-1-[4-(4-Fluorophenyl)-1H-1,2,3-triazol-1-yl]propan-2-yl}-N-(2-methoxyethyl)-5-methyl-2-(2H-1,2,3-triazol-2-yl)benzamide]
7.10	8.24	Cc1ccc(-n2nccn2)c(C(=O)N(CCO)[C@@H](C)Cn2cc(-c3ccc(F)cc3)nn2)c1 [Example 73, N-{(2S)-1-[4-(4-Fluorophenyl)-1H-1,2,3-triazol-1-yl]propan-2-yl}-N-(2-hydroxyethyl)-5-methyl-2-(2H-1,2,3-triazol-2-yl)benzamide]
8.89	7.88	CCN(C(=O)c1cc(C)ccc1-n1nccn1)C(C)Cc1cnn(-c2ccc(F)cn2)c1 (centres unmarked) [Example 74, N-Ethyl-N-{1-[1-(5-fluoropyridin-2-yl)-1H-pyrazol-4-yl]propan-2-yl}-5-methyl-2-(2H-1,2,3-triazol-2-yl)benzamide]
8.85	8.77	CCN(C(=O)c1cc(C)ccc1-n1nccn1)C(C)Cc1ccn(-c2ccc(F)cn2)n1 (centres unmarked) [Example 75, N-Ethyl-N-{1-[1-(5-fluoropyridin-2-yl)-1H-pyrazol-3-yl]propan-2-yl}-5-methyl-2-(2H-1,2,3-triazol-2-yl) benzamide]
9.00	7.22	CCN(C(=O)c1cc(C)ccc1-n1nccn1)[C@@H](C)Cc1nnc(-c2ccc(F)cc2)o1 [Example 76, N-Ethyl-N-{(2S)-1-[5-(4-fluorophenyl)-1,3,4-oxadiazol-2-yl]propan-2-yl}-5-methyl-2-(2H-1,2,3-triazol-2-yl)benzamide]
7.31	5.84	CCN(C(=O)c1nc(C)ccc1-n1nccn1)[C@@H](C)Cn1cc(-c2ccc(F)cn2)nn1 [Example 77, N-Ethyl-N-{(2S)-1-[4-(5-fluoropyridin-2-yl)-1H-1,2,3-triazol-1-yl]propan-2-yl}-6-methyl-3-(2H-1,2,3-triazol-2-yl)pyridine-2-carboxamide]
7.68	6.23	CCN(C(=O)c1cc(F)ccc1-n1nccn1)[C@@H](C)Cn1cc(-c2ccc(F)cn2)nn1 [Example 78, N-Ethyl-5-fluoro-N-{(2S)-1-[4-(5-fluoropyridin-2-yl)-1H-1,2,3-triazol-1-yl]propan-2-yl}-2-(2H-1,2,3-triazol-2-yl)benzamide]
7.20	6.37	CCN(C(=O)c1cc(C)ccc1-c1ncccn1)[C@@H](C)Cn1cc(-c2ccc(F)cn2)nn1 [Example 79, N-Ethyl-N-{(2S)-1-[4-(5-fluoropyridin-2-yl)-1H-1,2,3-triazol-1-yl]propan-2-y}-5-methyl-2-(pyrimidin-2-yl)benzamide]

Second part, the compound before the results:

SMILES	pIC50 [1]	pIC50 [2]
CCN(C(=O)c1ccccc1-n1nccn1)[C@@H](C)Cc1noc(-c2ccc(F)cn2)n1 [Example 56, N-Ethyl-N-{(2S)-1-[5-(5-fluoropyridin-2-yl)-1,2,4-oxadiazol-3-yl]propan-2-yl}-2-(2H-1,2,3-triazol-2-yl)benzamide]	8.30	6.22
CCN(C(=O)c1cc(F)ccc1-n1nccn1)[C@@H](C)Cc1noc(-c2ccc(F)cn2)n1 [Example 57, N-Ethyl-5-fluoro-N-{(2S)-1-[5-(5-fluoropyridin-2-yl)-1,2,4-oxadiazol-3-yl]propan-2-yl}-2-(2H-1,2,3-triazol-2-yl) benzamide]	8.29	5.97
CCN(C(=O)c1nc(C)ccc1-n1nccn1)[C@@H](C)Cc1noc(-c2ccc(F)cn2)n1 [Example 58, N-Ethyl-N-{(2S)-1-[5-(5-fluoropyridin-2-yl)-1,2,4-oxadiazol-3-yl]propan-2-yl}-6-methyl-3-(2H-1,2,3-triazol-2-yl) pyridine-2-carboxamide]	7.65	5.79
Cc1ccc(-n2nccn2)c(C(=O)N(C)[C@@H](C)Cc2noc(-c3ccc(F)cc3)n2)c1 [Example 59, N-{(2S)-1-[5-(4-Fluorophenyl)-1,2,4-oxadiazol-3-yl]propan-2-yl}-N,5-dimethyl-2-(2H-1,2,3-triazol-2-yl) benzamide]	9.30	8.00
Cc1ccc(-c2ncccn2)c(C(=O)N(C)[C@@H](C)Cc2noc(-c3ccc(F)cc3)n2)c1 [Example 60, N-{(2S)-1-[5-(4-Fluorophenyl)-1,2,4-oxadiazol-3-yl]propan-2-yl}-N,5-dimethyl-2-(pyrimidin-2-yl)benzamide]	8.89	7.35
CCN(C(=O)c1cc(C)ccc1-n1nccn1)[C@@H](C)Cc1noc(-c2ccc(F)cc2)n1 [Example 61]	9.15	8.48
CCN(C(=O)c1cc(C)ccc1-n1nccn1)[C@@H](C)Cn1nnc(-c2ccc(F)cc2)n1 [Example 62, N-Ethyl-N-{(2S)-1-[5-(4-fluorophenyl)-2H-tetrazol-2-yl]propan-2-yl}-5-methyl-2-(2H-1,2,3-triazol-2-yl)benzamide]	9.15	8.64
COCCN(C(=O)c1cc(C)ccc1-n1nccn1)[C@@H](C)Cn1nnc(-c2ccc(F)cc2)n1 [Example 63, N-{(2S)-1-[5-(4-Fluorophenyl)-2H-tetrazol-2-yl]propan-2-yl}-N-(2-methoxyethyl)-5-methyl-2-(2H-1,2,3-triazol-2-yl)benzamide]	8.66	7.17
Cc1ccc(-n2nccn2)c(C(=O)N(CCO)[C@@H](C)Cn2nnc(-c3ccc(F)cc3)n2)c1 [Example 64, N-{(2S)-1-[5-(4-Fluorophenyl)-2H-tetrazol-2-yl]propan-2-yl}-N-(2-hydroxyethyl)-5-methyl-2-(2H-1,2,3-triazol-2-yl)benzamide]	9.00	7.32
CCN(C(=O)c1nc(C)ccc1-n1nccn1)[C@@H](C)Cn1nnc(-c2ccc(F)cc2)n1 [Example 65, N-Ethyl-N-{(2S)-1-[5-(4-fluorophenyl)-2H-tetrazol-2-yl]propan-2-yl}-6-methyl-3-(2H-1,2,3-triazol-2-yl)pyridine-2-carboxamide]	8.89	6.84
CCN(C(=O)c1cc(F)ccc1-n1nccn1)[C@@H](C)Cn1nnc(-c2ccc(F)cc2)n1 [Example 66, N-Ethyl-5-fluoro-N-{(2S)-1-[5-(4-fluorophenyl)-2H-tetrazol-2-yl]propan-2-yl}-2-(2H-1,2,3-triazol-2-yl) benzamide]	8.80	6.89
CCN(C(=O)c1ccccc1-n1nccn1)[C@@H](C)Cn1nnc(-c2ccc(F)cc2)n1 [Example 67]	8.74	7.12
CCN(C(=O)c1cc(C)ccc1-c1ncccn1)[C@@H](C)Cn1nnc(-c2ccc(F)cc2)n1 [Example 68, N-Ethyl-N-{(2S)-1-[5-(4-fluorophenyl)-2H-tetrazol-2-yl]propan-2-yl}-5-methyl-2-(pyrimidin-2-yl)benzamide]	9.10	7.47
CCN(C(=O)c1cc(C)ccc1-n1nccn1)[C@@H](C)Cn1cc(-c2ccc(F)cc2)nn1 [Example 71, N-Ethyl-N-{(2S)-1-[4-(4-fluorophenyl)-1H-1,2,3-triazol-1-yl]propan-2-yl}-5-methyl-2-(2H-1,2,3-triazol-2-yl)benzamide]	8.89	7.66
